Test results published in the supplement of paper PMC10307832.

What was measured:
Assay in all cases: relative viability (nuclei count vs DMSO), 5 days (fraction); higher = more cells survive
Conditions in all cases: main component drawn
Bleomycin + Bortezomib = compound: CC1=C(N=C(N=C1N)[C@H](CC(=O)N)NC[C@@H](C(=O)N)N)C(=O)N[C@@H]([C@H](C2=CN=CN2)OC3C(C(C(C(O3)CO)O)O)OC4C(C(C(C(O4)CO)O)OC(=O)N)O)C(=O)N[C@H](C)[C@H]([C@H](C)C(=O)N[C@@H]([C@@H](C)O)C(=O)NCCC5=NC(=CS5)C6=NC(=CS6)C(=O)NCCC[S+](C)C)O [Bleomycin] + CC(C)C[C@H](NC(=O)[C@H](Cc1ccccc1)NC(=O)c1cnccn1)B(O)O [Bortezomib] (partner 0.002 µM)
Outline: (§1)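 Nuclei were stained with Hoechst during a one-step fixation (final 0.05% Triton X-100, 1% formaldehyde, 1 ug/ml Hoechst) carried out 5 days after dosing, then counted on 4× images. The cells, lung cancer lines in 1536-well plates, had been dosed by pin tool the day after seeding with one drug alone or a fixed anchor-drug dose plus five library-drug doses (not always all listed) in √10 steps. Relative viability is the nuclei count in treated wells divided by that in vehicle wells, and each value is the median of duplicate plates.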

Bleomycin + Vorinostat = compound: CC1=C(N=C(N=C1N)[C@H](CC(=O)N)NC[C@@H](C(=O)N)N)C(=O)N[C@@H]([C@H](C2=CN=CN2)OC3C(C(C(C(O3)CO)O)O)OC4C(C(C(C(O4)CO)O)OC(=O)N)O)C(=O)N[C@H](C)[C@H]([C@H](C)C(=O)N[C@@H]([C@@H](C)O)C(=O)NCCC5=NC(=CS5)C6=NC(=CS6)C(=O)NCCC[S+](C)C)O [Bleomycin] + O=C(CCCCCCC(=O)Nc1ccccc1)NO [Vorinostat] (partner 1 µM)
Outline: as §1

Bleomycin + Luminespib = compound: CC1=C(N=C(N=C1N)[C@H](CC(=O)N)NC[C@@H](C(=O)N)N)C(=O)N[C@@H]([C@H](C2=CN=CN2)OC3C(C(C(C(O3)CO)O)O)OC4C(C(C(C(O4)CO)O)OC(=O)N)O)C(=O)N[C@H](C)[C@H]([C@H](C)C(=O)N[C@@H]([C@@H](C)O)C(=O)NCCC5=NC(=CS5)C6=NC(=CS6)C(=O)NCCC[S+](C)C)O [Bleomycin] + CCNC(=O)c1noc(-c2cc(C(C)C)c(O)cc2O)c1-c1ccc(CN2CCOCC2)cc1 [Luminespib] (partner 0.01 µM)
Outline: as §1

Bleomycin + Crizotinib = compound: CC1=C(N=C(N=C1N)[C@H](CC(=O)N)NC[C@@H](C(=O)N)N)C(=O)N[C@@H]([C@H](C2=CN=CN2)OC3C(C(C(C(O3)CO)O)O)OC4C(C(C(C(O4)CO)O)OC(=O)N)O)C(=O)N[C@H](C)[C@H]([C@H](C)C(=O)N[C@@H]([C@@H](C)O)C(=O)NCCC5=NC(=CS5)C6=NC(=CS6)C(=O)NCCC[S+](C)C)O [Bleomycin] + C[C@@H](Oc1cc(-c2cnn(C3CCNCC3)c2)cnc1N)c1c(Cl)ccc(F)c1Cl [Crizotinib] (partner 1 µM)
Outline: as §1

## UMC-11
Bleomycin + Bortezomib; first compound 0.01 µM
  relative viability: 0.626
Bleomycin + Bortezomib; first compound 0.03162 µM
  relative viability: 0.587
Bleomycin + Bortezomib; first compound 0.1 µM
  relative viability: 0.576
Bleomycin + Bortezomib; first compound 0.3162 µM
  relative viability: 0.477
Bleomycin + Bortezomib; first compound 1 µM
  relative viability: 0.304
Bleomycin + Vorinostat; first compound 0.01 µM
  relative viability: 0.364
Bleomycin + Vorinostat; first compound 0.03162 µM
  relative viability: 0.346
Bleomycin + Vorinostat; first compound 0.1 µM
  relative viability: 0.311
Bleomycin + Vorinostat; first compound 0.3162 µM
  relative viability: 0.278
Bleomycin + Vorinostat; first compound 1 µM
  relative viability: 0.232
Bleomycin + Luminespib; first compound 0.01 µM
  relative viability: 0.914
Bleomycin + Luminespib; first compound 0.03162 µM
  relative viability: 1.05
Bleomycin + Luminespib; first compound 0.1 µM
  relative viability: 0.893
Bleomycin + Luminespib; first compound 0.3162 µM
  relative viability: 0.65
Bleomycin + Luminespib; first compound 1 µM
  relative viability: 0.539
Bleomycin + Crizotinib; first compound 0.01 µM
  relative viability: 0.528
Bleomycin + Crizotinib; first compound 0.03162 µM
  relative viability: 0.571
Bleomycin + Crizotinib; first compound 0.1 µM
  relative viability: 0.419
Bleomycin + Crizotinib; first compound 0.3162 µM
  relative viability: 0.326
Bleomycin + Crizotinib; first compound 1 µM
  relative viability: 0.252
